Here are results for 23 molecules from US9351955B2, “Compounds and pharmaceutical compositions thereof for the treatment of cystic fibrosis” (Galapagos NV, priority 2013, dated 2016).

The structures appear in SMILES notation.

The target in one assay is T1, CFTR ΔF508 mutant (Homo sapiens, UniProt P13569, DEL508-508).
T1 construct: expressed in transfected cells; host or cells: CFBE41o- (adenoviral transduction)
The experiment in a line: YFP-halide influx assay for the CFTR-ΔF508 mutation (384 well, CFBE41o- cells, FDSS/μCell). The assay is classed as cell-based. The conditions noted are these: forskolin 10.67 μM, fluorescence after 36 seconds, read-out: EC50 measured by YFP-halide influx assay for the CFTR-ΔF508. From the text: 6.2. YFP-Halide Influx Assay for the CFTR-ΔF508 Mutation
The YFP halide influx assay measures the functionality of the cystic fibrosis Transmembrane Conductance regulator (CFTR) channels in the cystic fibrosis bronchial epithelium cell line CFBE41o-. The assay is used to evaluate the capacity of compounds to increase the open probability of existing CFTR channels in the membrane. It makes use of the observation that the yellow fluorescent protein (YFP) variant YFP H148Q, I152L has its fluorescence substantially quenched by halide ions like Cl— and I— (Galietta et al., 2001; Nagai et al., 2002).
For this purpose, CFBE410-cells are seeded in 384 well plates (3000 CFBE cells/well). One day after seeding, the CFBE cells are transduced with adenoviral vectors that direct the expression of the CFTR ΔF508 mutant and of the YFP reporter. Cells are incubated at 27° C., 5% CO2 for 24 hours so as to allow for the proper folding and migration to the membrane of the CFTR channel or treated with a CFTR modulator during 24 h at 37° C.
The I— induced quenching of fluorescence is recorded […] immediately after injection of I— for 2 min on an FDSS/μCell (Hamamatsu). The capacity of a compound to increase the channel opening is directly correlated with the decrease in fluorescence, and is expressed as (1−(fluorescence after 36 seconds (F)/fluorescence before injection (F0))) and an EC50 can be derived from a (1−F/F0) vs compound concentration plot.

For another assay, the target named is T2, CFTR G551D mutant (Homo sapiens, UniProt P13569, G551D).
T2 construct: expressed in transfected cells; host or cells: HEK293 (reverse transfection with plasmids)
T2 sequence (P13569 whole entry G551D): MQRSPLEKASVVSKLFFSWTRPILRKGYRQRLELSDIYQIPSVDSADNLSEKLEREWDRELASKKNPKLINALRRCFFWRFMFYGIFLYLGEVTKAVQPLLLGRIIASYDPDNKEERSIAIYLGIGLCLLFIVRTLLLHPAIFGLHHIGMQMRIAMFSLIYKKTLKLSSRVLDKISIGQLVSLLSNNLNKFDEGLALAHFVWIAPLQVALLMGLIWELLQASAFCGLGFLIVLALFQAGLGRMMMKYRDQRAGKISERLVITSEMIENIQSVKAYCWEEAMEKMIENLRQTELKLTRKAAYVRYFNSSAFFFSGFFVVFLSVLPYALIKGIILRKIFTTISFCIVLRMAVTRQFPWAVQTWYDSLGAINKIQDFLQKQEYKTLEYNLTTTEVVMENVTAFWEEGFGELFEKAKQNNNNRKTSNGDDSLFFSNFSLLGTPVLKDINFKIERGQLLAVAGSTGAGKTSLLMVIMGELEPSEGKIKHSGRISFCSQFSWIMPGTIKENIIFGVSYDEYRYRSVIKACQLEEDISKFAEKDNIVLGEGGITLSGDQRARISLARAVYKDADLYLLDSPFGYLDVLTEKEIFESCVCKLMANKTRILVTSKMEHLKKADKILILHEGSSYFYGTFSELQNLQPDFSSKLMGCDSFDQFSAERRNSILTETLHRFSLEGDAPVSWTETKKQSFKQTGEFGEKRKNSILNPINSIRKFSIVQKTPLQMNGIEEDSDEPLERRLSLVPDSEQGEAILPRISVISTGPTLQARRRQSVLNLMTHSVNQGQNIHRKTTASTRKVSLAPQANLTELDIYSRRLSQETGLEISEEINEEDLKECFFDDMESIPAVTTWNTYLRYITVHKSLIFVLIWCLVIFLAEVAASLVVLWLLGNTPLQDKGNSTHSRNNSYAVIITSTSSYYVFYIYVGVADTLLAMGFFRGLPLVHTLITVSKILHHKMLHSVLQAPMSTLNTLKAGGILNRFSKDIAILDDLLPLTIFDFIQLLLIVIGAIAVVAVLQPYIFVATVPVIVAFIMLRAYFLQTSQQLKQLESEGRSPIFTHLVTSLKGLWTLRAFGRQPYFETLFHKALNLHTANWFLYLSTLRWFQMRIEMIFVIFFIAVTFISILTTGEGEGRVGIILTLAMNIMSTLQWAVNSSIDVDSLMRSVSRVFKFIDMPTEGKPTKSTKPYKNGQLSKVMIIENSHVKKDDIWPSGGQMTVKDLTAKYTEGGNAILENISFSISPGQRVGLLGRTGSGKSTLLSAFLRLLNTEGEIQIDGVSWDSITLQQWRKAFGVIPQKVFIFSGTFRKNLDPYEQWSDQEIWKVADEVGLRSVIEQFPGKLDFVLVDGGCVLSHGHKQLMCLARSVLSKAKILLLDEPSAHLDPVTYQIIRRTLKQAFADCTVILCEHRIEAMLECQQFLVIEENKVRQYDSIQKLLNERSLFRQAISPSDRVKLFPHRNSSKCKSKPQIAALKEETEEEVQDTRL
The assay is described as follows: YFP-halide influx assay for the CFTR-G551D mutation (HEK293 cells). The assay is classed as cell-based. The note with it: HEK293 cells expressing CFTR G551D and YFP reporter; forskolin 10.67 μM; read-out: EC50 measured by YFP-halide influx assay for the CFTR-G551D. The source says: 6.3. YFP-Halide Influx Assay for the CFTR-G551D Mutation
The YFP halide influx assay measures the functionality of the cystic fibrosis Transmembrane Conductance regulator (CFTR) channels. The assay is used to evaluate the capacity of compounds to increase the channel opening of existing mutant CFTR channels in the membrane. It makes use of the observation that the yellow fluorescent protein (YFP) variant YFP H148Q, I152L, F47L has its fluorescence substantially quenched by halide ions like Cl^− and I^−. (Galietta et al., 2001)
For this purpose, HEK293-cells are seeded in 96 well plates. During seeding, the cells are reverse-transfected with plasmid vectors that direct the expression of the CFTR G551D mutant and of the YFP reporter. Cells are incubated at 37° C., 5% CO2 for 24 hours so as to allow for sufficient expression of the CFTR protein.
The I^−-induced quenching of fluorescence is recorded immediately after injection of I^− for 7 seconds. The capacity of a compound to increase the channel opening is directly correlated with the decrease in fluorescence, and is expressed as (1−(fluorescence after 7 seconds (F)/fluorescence before injection (F0))) and an EC50 can be derived from a (1−F/F0) vs compound concentration plot.

T1 sequence (P13569 with tags, fused parts or gaps DEL508-508): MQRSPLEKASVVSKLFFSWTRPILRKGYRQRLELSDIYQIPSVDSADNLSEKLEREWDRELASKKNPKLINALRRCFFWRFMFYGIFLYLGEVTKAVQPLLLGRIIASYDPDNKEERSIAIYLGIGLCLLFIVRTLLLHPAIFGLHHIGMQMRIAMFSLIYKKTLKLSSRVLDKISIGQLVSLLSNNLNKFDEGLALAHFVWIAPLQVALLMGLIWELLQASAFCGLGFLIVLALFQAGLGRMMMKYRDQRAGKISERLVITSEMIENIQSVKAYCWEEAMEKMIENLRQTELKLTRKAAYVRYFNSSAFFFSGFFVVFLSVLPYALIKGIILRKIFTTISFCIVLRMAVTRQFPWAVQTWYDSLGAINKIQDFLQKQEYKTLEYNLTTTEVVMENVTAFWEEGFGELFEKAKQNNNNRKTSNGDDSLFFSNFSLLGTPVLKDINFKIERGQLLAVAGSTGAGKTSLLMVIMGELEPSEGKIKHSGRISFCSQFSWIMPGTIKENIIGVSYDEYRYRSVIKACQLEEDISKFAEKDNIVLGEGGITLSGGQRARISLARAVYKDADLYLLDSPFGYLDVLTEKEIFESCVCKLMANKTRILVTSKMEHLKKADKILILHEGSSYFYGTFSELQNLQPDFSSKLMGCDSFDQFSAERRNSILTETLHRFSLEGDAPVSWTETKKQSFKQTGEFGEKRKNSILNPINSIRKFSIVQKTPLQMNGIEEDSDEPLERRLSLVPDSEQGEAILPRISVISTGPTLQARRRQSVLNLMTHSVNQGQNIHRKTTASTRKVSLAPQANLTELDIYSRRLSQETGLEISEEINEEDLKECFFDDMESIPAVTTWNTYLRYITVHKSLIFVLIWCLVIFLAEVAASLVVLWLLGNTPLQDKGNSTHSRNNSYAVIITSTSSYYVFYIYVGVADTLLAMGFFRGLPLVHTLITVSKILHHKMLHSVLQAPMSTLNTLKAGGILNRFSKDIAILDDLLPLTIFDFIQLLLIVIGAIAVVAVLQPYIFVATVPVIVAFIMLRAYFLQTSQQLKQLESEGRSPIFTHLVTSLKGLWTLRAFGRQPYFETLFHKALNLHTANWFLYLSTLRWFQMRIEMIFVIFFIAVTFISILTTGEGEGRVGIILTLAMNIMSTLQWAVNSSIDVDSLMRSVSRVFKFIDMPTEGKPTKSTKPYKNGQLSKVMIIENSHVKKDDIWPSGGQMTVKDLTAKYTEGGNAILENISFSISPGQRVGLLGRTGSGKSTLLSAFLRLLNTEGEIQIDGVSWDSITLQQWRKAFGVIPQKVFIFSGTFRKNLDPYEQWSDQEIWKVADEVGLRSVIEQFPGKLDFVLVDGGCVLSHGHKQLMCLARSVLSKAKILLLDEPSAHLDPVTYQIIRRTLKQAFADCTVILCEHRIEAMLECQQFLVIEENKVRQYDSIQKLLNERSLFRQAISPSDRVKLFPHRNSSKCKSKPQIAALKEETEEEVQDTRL

For orientation: EC50 means the concentration needed to bring the measured effect to its halfway point. Consider `Cc1cnc(C(=O)Nc2sc3c(c2C(N)=O)CC(C)(C)OC3(C)C)cn1` [Compound 141, N-(3-carbamoyl-5,5,7,7-tetramethyl-4H-thieno[2,3-c]pyran-2-yl)-5-methyl-pyrazine-2-carboxamide], for which the EC50 at CFTR ΔF508 mutant came out at 99.5 nM; on CFTR G551D mutant, 1620 nM.

As to `CC1(C)Cc2c(sc(NC(=O)c3ccn(COP(=O)(O)O)n3)c2C(N)=O)C(C)(C)O1` [Compound 93, [3-[(3-carbamoyl-5,5,7,7-tetramethyl-4H-thieno[2,3-c]pyran-2-yl)carbamoyl]pyrazol-1-yl]methyl dihydrogen phosphate], the EC50 at CFTR ΔF508 mutant came out at 479 nM; at CFTR G551D mutant, 3330 nM.

For the molecule `CC1(C)Cc2c(sc(NC(=O)c3cncs3)c2C(N)=O)C(C)(C)O1` [Compound 134, N-(3-carbamoyl-5,5,7,7-tetramethyl-4H-thieno[2,3-c]pyran-2-yl)thiazole-5-carboxamide], the EC50 worked out at 78.6 nM on CFTR ΔF508 mutant and 2020 nM at CFTR G551D mutant.

`Cc1ccc(C(=O)Nc2sc3c(c2C(N)=O)CC(C)(C)OC3(C)C)cn1` [Compound 143, N-(3-carbamoyl-5,5,7,7-tetramethyl-4H-thieno[2,3-c]pyran-2-yl)-6-methyl-pyridine-3-carboxamide]: the figures for the EC50 at CFTR ΔF508 mutant and at CFTR G551D mutant were 153 nM and 2710 nM, respectively.

In the case of `CC(O)C1(C(=O)Nc2sc3c(c2C(N)=O)CC(C)(C)OC3(C)C)CC1` (stereo not shown) [Compound 78, 2-[[1-[1-hydroxyethyl]cyclopropanecarbonyl]amino]-5,5,7,7-tetramethyl-4H-thieno[2,3-c]pyran-3-carboxamide], the values for the EC50 on CFTR ΔF508 mutant and at CFTR G551D mutant were 6.39 nM and 3350 nM, respectively.

Turning to `CC1(C)Cc2c(sc(NC(=O)[C@](C)(O)C(F)(F)F)c2C(N)=O)C(C)(C)O1` [Compound 152, 5,5,7,7-tetramethyl-2-[[(2S)-3,3,3-trifluoro-2-hydroxy-2-methyl-propanoyl]amino]-4H-thieno[2,3-c]pyran-3-carboxamide], the EC50 at CFTR ΔF508 mutant was 12 nM; at CFTR G551D mutant, 2160 nM.

Consider `Cc1nc(C(=O)Nc2sc3c(c2C(N)=O)CC(C)(C)OC3(C)C)co1` [Compound 125, N-(3-carbamoyl-5,5,7,7-tetramethyl-4H-thieno[2,3-c]pyran-2-yl)-2-methyl-oxazole-4-carboxamide], for which the EC50 at CFTR ΔF508 mutant was 194 nM; on CFTR G551D mutant, 3330 nM.

Consider `CC1(C)Cc2c(sc(NC(=O)CC(O)C3CC3)c2C(N)=O)C(C)(C)O1` (stereo not shown) [Compound 68, 2-[(3-cyclopropyl-3-hydroxy-propanoyl)amino]-5,5,7,7-tetramethyl-4H-thieno[2,3-c]pyran-3-carboxamide], for which the results for the EC50 on CFTR ΔF508 mutant and at CFTR G551D mutant were 60 nM and 3330 nM, respectively.

On to `CC(C)C(O)CC(=O)Nc1sc2c(c1C(N)=O)CC(C)(C)OC2(C)C` (stereo not shown) [Compound 67, 2-[(3-hydroxy-4-methyl-pentanoyl)amino]-5,5,7,7-tetramethyl-4H-thieno[2,3-c]pyran-3-carboxamide], for which the figures for the EC50 at CFTR ΔF508 mutant and on CFTR G551D mutant were 42.7 nM and 3330 nM, respectively.

With `CC1(C)Cc2c(sc(NC(=O)c3cn[nH]c3)c2C(N)=O)C(C)(C)O1` [Compound 49, N-(3-carbamoyl-5,5,7,7-tetramethyl-4H-thieno[2,3-c]pyran-2-yl)-1H-pyrazole-4-carboxamide], the figures for the EC50 on CFTR ΔF508 mutant and at CFTR G551D mutant were 125 nM and 5670 nM, respectively.

Consider `CC1(C)Cc2c(sc(NC(=O)c3ccnn3C(F)F)c2C(N)=O)C(C)(C)O1` [Compound 115, N-(3-carbamoyl-5,5,7,7-tetramethyl-4H-thieno[2,3-c]pyran-2-yl)-2-(difluoromethyl)pyrazole-3-carboxamide], for which the EC50 on CFTR ΔF508 mutant turned out to be 62.1 nM; at CFTR G551D mutant it was 586 nM.

On to `CC1(C)Cc2c(sc(NC(=O)[C@]3(CO)CC3(C)C)c2C(N)=O)C(C)(C)O1` [Compound 99, 2-[[(1R)-1-(hydroxymethyl)-2,2-dimethyl-cyclopropanecarbonyl]amino]-5,5,7,7-tetramethyl-4H-thieno[2,3-c]pyran-3-carboxamide], for which the EC50 at CFTR ΔF508 mutant came out at 28.3 nM; on CFTR G551D mutant, 1340 nM.

Regarding `CCOC(=O)C1CC1C(=O)Nc1sc2c(c1C(N)=O)CC(C)(C)OC2(C)C` (stereo not shown) [Compound 62, 2-(3-Carbamoyl-5,5,7,7-tetramethyl-4,7-dihydro-5H-thieno[2,3-c]pyran-2-ylcarbamoyl)-cyclopropanecarboxylic acid ethyl ester], the EC50 at CFTR ΔF508 mutant is 301 nM; at CFTR G551D mutant it was 3330 nM.

In the case of `CC1(C)Cc2c(sc(NC(=O)c3n[nH]cc3C3COCCO3)c2C(N)=O)C(C)(C)O1` (single isomer, unassigned) [Compound 111, N-(3-carbamoyl-5,5,7,7-tetramethyl-4H-thieno[2,3-c]pyran-2-yl)-4-[1,4-dioxan-2-yl]-1H-pyrazole-3-carboxamide], the EC50 was 23.9 nM at CFTR ΔF508 mutant and 3100 nM on CFTR G551D mutant.

`CC1(C)Cc2c(sc(NC(=O)C(CO)CC3CC3)c2C(N)=O)C(C)(C)O1` (single isomer, unassigned) [Compound 97, 2-[[2-(cyclopropylmethyl)-3-hydroxy-propanoyl]amino]-5,5,7,7-tetramethyl-4H-thieno[2,3-c]pyran-3-carboxamide]: the values for the concentration giving a half-maximal response (EC50) on CFTR ΔF508 mutant and at CFTR G551D mutant were 113 nM and 2780 nM, respectively.

With `CC1(C)Cc2c(sc(NC(=O)c3n[nH]cc3CO)c2C(N)=O)C(C)(C)O1` [Compound 88, N-(3-carbamoyl-5,5,7,7-tetramethyl-4H-thieno[2,3-c]pyran-2-yl)-4-(hydroxymethyl)-1H-pyrazole-3-carboxamide], the EC50 on CFTR ΔF508 mutant stood at 145 nM; at CFTR G551D mutant, 1170 nM.

As to `CC1(C)Cc2c(sc(NC(=O)C3CC3(F)F)c2C(N)=O)C(C)(C)O1` (stereo not shown) [Compound 48, 2-[(2,2-difluorocyclopropanecarbonyl)amino]-5,5,7,7-tetramethyl-4H-thieno[2,3-c]pyran-3-carboxamide], the EC50 at CFTR ΔF508 mutant was found to be 66.6 nM; at CFTR G551D mutant, 4570 nM.

With `CC(CO)C(=O)Nc1sc2c(c1C(N)=O)CC(C)(C)OC2(C)C` (stereo not shown) [Compound 70, 2-[(3-hydroxy-2-methyl-propanoyl)amino]-5,5,7,7-tetramethyl-4H-thieno[2,3-c]pyran-3-carboxamide], the EC50 at CFTR ΔF508 mutant came to 176 nM; on CFTR G551D mutant it was 3330 nM.

With `CC(C)C(CO)C(=O)Nc1sc2c(c1C(N)=O)CC(C)(C)OC2(C)C` (stereo not shown) [Compound 74, 2-[[2-(hydroxymethyl)-3-methyl-butanoyl]amino]-5,5,7,7-tetramethyl-4H-thieno[2,3-c]pyran-3-carboxamide], the EC50 was 82.6 nM at CFTR ΔF508 mutant and 3330 nM at CFTR G551D mutant.

With `CC1(C)Cc2c(sc(NC(=O)C(CO)C(C)(C)C)c2C(N)=O)C(C)(C)O1` (stereo not shown) [Compound 85, 2-[[2-(hydroxymethyl)-3,3-dimethyl-butanoyl]amino]-5,5,7,7-tetramethyl-4H-thieno[2,3-c]pyran-3-carboxamide], the EC50 at CFTR ΔF508 mutant is 93.5 nM; at CFTR G551D mutant, 3330 nM.

As for `CC(C)C(O)C(=O)Nc1sc2c(c1C(N)=O)CC(C)(C)OC2(C)C` (single isomer, unassigned) [Compound 51, 2-[[2-hydroxy-3-methyl-butanoyl]amino]-5,5,7,7-tetramethyl-4H-thieno[2,3-c]pyran-3-carboxamide], the EC50 on CFTR ΔF508 mutant turned out to be 92.5 nM; at CFTR G551D mutant it was 5550 nM.

Turning to `CC1(C)Cc2c(sc(NC(=O)c3ccn(CC(F)F)n3)c2C(N)=O)C(C)(C)O1` [Compound 126, N-(3-carbamoyl-5,5,7,7-tetramethyl-4H-thieno[2,3-c]pyran-2-yl)-1-(2,2-difluoroethyl)pyrazole-3-carboxamide], the values for the EC50 at CFTR ΔF508 mutant and on CFTR G551D mutant were 555 nM and 3330 nM, respectively.

For the molecule `CC(O)C1(C(=O)Nc2sc3c(c2C(N)=O)CC(C)(C)OC3(C)C)CC1` (stereo not shown) [Compound 59, 2-[[1-(1-hydroxyethyl)cyclopropanecarbonyl]amino]-5,5,7,7-tetramethyl-4H-thieno[2,3-c]pyran-3-carboxamide], the EC50 on CFTR ΔF508 mutant was 8.74 nM; on CFTR G551D mutant, 3330 nM.
